ChEMBL document CHEMBL3991601, “The target landscape of clinical kinase drugs” (Science, 2017)
The source made the active and inactive calls.

Legend:
[1] = target: Mitogen-activated protein kinase 10 (Homo sapiens, UniProt P53779)
Activin receptor type-2B = Activin receptor type-2B (Homo sapiens, UniProt Q13705)
Glycine--tRNA ligase = target: T1, Glycine--tRNA ligase (Homo sapiens, UniProt P41250)
T1 sequence (P41250 whole entry): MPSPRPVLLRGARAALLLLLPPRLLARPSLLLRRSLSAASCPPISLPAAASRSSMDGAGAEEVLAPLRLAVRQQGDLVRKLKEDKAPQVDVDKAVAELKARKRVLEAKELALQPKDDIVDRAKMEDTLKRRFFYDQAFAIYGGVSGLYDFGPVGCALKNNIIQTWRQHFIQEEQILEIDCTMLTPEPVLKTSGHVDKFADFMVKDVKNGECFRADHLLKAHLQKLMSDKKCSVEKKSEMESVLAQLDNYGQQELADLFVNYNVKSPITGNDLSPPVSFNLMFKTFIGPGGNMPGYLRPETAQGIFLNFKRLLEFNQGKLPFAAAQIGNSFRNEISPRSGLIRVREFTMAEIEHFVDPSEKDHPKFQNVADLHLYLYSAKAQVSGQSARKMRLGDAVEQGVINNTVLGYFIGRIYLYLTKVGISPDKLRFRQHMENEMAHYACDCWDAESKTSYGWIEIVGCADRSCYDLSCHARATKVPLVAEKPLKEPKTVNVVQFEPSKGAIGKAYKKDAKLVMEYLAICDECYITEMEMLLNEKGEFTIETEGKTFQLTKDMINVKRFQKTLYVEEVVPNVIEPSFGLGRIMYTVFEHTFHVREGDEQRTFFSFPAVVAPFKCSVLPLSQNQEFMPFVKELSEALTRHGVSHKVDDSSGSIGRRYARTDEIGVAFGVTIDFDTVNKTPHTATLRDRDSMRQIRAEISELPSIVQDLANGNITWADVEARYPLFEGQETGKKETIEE

Rab-like protein 3 = target: T2, Rab-like protein 3 (Homo sapiens, UniProt Q5HYI8)
T2 sequence (Q5HYI8 whole entry): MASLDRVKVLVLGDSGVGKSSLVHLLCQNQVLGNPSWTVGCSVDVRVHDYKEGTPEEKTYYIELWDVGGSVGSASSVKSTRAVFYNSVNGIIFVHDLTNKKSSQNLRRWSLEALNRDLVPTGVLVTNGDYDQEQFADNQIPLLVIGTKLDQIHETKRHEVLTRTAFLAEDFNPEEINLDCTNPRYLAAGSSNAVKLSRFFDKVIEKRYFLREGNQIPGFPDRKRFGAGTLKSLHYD

[2] = target: T3, ATP-dependent RNA helicase DDX42 (Homo sapiens, UniProt Q86XP3)
T3 sequence (Q86XP3 whole entry): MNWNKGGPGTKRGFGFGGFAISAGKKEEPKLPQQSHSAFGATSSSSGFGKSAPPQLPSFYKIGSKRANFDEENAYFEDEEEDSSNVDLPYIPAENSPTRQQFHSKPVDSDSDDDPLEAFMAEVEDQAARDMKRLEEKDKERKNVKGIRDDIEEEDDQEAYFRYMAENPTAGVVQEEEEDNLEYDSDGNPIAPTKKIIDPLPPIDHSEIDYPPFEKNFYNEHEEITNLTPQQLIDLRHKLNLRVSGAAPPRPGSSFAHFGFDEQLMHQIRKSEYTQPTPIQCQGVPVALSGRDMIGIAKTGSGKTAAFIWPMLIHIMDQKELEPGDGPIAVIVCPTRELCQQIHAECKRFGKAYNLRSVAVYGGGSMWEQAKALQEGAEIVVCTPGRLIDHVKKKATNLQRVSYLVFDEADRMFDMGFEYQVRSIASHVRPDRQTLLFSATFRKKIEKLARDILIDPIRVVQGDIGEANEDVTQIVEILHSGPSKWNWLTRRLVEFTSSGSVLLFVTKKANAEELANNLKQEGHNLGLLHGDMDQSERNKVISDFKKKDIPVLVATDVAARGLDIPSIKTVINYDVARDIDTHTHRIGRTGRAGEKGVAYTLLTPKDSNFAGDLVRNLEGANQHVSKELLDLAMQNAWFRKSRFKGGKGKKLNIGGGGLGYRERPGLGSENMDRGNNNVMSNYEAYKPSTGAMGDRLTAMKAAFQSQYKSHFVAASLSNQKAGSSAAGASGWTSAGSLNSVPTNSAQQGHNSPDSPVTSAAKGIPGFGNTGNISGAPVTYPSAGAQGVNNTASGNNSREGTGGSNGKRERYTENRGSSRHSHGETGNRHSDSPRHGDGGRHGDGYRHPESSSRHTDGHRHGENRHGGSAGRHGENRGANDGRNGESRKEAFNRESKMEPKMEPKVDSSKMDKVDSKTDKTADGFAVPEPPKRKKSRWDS

[3] = target: Casein kinase I isoform gamma-1 (Homo sapiens, UniProt Q9HCP0)
[4] = target: T4, cGMP-dependent protein kinase 1 (Homo sapiens, UniProt Q13976)
T4 sequence (Q13976 whole entry): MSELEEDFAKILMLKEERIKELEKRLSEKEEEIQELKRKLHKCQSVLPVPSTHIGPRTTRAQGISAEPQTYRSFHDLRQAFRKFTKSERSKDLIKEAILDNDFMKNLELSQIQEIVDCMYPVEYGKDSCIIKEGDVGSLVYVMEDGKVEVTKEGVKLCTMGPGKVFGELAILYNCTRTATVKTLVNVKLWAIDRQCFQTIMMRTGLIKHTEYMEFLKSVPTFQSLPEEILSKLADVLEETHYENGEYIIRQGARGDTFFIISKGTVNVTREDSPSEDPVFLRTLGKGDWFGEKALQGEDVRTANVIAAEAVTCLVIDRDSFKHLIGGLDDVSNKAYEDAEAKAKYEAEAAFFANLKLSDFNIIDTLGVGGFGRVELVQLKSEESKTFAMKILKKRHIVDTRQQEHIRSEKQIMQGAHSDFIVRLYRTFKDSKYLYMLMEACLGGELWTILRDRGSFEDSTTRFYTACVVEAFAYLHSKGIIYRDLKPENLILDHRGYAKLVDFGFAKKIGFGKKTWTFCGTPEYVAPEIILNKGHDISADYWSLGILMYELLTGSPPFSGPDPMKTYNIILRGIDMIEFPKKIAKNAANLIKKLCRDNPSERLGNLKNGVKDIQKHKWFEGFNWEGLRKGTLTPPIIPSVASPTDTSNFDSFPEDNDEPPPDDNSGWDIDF

[5] = target: Macrophage-stimulating protein receptor (Homo sapiens, UniProt Q04912)
[6] = target: Ribosomal protein S6 kinase alpha-3 (Homo sapiens, UniProt P51812)
[7] = target: Tyrosine-protein kinase Fyn (Homo sapiens, UniProt P06241)
Further: in the data inactive means no Kd found up to 30 µM.

Mitogen-activated protein kinase 10, sequence (P53779 whole entry): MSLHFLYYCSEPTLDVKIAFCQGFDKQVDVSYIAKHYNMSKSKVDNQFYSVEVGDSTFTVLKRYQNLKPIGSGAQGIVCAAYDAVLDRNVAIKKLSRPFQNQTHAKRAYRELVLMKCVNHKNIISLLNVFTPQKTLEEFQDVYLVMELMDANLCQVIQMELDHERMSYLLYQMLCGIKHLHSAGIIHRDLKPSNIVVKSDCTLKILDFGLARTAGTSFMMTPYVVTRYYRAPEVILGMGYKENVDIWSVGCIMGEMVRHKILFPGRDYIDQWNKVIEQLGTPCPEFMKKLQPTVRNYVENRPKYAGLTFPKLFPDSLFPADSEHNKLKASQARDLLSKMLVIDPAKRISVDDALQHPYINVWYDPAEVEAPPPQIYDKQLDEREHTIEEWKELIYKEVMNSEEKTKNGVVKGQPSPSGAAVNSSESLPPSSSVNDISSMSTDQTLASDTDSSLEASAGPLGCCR
Casein kinase I isoform gamma-1, sequence (Q9HCP0 whole entry, canonical isoform): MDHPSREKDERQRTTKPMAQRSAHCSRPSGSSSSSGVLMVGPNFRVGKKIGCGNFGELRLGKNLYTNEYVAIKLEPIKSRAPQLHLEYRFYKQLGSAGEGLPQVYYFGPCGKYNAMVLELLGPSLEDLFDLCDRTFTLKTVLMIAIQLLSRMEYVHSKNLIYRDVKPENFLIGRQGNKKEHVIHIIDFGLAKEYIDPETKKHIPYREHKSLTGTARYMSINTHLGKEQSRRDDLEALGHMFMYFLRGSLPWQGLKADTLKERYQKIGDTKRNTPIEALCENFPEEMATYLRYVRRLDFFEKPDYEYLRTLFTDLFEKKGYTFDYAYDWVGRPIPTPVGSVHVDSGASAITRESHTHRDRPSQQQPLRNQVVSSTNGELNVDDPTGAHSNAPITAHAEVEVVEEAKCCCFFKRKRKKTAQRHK
Activin receptor type-2B, sequence (Q13705 whole entry): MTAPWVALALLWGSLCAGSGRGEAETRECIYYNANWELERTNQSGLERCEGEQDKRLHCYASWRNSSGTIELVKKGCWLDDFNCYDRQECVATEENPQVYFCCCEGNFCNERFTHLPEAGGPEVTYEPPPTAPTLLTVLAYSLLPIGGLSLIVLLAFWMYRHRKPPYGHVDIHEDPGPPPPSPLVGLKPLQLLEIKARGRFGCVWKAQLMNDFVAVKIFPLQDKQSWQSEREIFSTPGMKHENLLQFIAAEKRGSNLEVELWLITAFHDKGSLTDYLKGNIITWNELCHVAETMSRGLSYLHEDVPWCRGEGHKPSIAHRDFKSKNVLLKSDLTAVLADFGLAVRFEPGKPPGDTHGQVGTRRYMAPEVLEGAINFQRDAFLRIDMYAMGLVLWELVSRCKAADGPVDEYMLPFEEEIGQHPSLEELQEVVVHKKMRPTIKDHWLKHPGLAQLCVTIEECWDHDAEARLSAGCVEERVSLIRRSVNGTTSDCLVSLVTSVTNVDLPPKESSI
Macrophage-stimulating protein receptor, sequence (Q04912 25-304 limits assumed): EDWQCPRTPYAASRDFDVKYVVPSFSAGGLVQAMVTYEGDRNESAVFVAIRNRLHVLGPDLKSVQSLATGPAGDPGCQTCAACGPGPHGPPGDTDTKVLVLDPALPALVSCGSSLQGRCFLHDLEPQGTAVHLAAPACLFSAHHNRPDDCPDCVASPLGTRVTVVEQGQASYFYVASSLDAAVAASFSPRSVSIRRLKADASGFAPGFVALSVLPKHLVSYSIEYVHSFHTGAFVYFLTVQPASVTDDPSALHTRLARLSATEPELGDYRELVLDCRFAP
Macrophage-stimulating protein receptor, sequence (Q04912 310-1400 limits assumed): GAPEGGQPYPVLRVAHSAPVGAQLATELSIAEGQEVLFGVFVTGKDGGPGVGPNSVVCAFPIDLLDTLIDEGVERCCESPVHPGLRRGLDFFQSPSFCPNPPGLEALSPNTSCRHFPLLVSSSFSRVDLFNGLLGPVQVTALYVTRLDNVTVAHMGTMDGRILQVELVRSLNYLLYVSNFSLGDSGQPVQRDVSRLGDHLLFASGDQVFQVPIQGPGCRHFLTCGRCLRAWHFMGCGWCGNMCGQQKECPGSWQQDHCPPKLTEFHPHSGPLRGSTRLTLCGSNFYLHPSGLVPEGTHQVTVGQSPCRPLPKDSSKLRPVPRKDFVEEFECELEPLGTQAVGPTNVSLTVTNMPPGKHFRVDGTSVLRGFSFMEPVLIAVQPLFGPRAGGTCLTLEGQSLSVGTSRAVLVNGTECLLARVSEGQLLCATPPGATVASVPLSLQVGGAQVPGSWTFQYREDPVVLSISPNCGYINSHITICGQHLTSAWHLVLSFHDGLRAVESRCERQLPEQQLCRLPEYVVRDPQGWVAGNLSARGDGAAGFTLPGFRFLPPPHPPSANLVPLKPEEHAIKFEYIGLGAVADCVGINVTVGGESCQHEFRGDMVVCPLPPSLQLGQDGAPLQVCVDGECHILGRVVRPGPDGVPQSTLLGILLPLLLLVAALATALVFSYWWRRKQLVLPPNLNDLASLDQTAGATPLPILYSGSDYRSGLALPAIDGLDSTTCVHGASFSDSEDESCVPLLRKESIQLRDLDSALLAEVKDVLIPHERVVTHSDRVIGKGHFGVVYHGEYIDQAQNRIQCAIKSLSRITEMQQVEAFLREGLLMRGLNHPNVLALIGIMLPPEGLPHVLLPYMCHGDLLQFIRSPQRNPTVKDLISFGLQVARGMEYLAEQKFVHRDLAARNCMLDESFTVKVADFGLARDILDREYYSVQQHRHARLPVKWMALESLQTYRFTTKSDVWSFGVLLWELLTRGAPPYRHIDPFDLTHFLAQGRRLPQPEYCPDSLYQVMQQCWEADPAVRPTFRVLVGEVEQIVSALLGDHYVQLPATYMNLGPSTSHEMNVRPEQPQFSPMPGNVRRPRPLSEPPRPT
Ribosomal protein S6 kinase alpha-3, sequence (P51812 whole entry): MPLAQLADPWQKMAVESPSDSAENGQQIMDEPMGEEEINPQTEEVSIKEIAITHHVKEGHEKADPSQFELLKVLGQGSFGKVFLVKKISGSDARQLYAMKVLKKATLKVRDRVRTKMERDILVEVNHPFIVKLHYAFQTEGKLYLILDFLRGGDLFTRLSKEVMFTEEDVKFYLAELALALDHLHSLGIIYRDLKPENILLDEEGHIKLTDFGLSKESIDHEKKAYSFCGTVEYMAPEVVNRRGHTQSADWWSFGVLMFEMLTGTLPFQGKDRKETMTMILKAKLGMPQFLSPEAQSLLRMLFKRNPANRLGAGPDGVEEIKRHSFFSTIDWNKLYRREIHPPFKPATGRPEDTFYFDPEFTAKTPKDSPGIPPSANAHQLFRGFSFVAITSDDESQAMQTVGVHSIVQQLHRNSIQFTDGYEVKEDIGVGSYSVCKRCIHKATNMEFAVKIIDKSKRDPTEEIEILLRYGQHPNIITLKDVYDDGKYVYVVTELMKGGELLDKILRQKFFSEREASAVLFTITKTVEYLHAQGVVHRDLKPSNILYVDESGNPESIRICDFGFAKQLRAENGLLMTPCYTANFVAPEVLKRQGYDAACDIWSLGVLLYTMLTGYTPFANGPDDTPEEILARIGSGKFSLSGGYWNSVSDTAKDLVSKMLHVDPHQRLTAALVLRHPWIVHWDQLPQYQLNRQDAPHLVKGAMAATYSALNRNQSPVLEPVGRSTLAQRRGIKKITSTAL
Tyrosine-protein kinase Fyn, sequence (P06241 whole entry): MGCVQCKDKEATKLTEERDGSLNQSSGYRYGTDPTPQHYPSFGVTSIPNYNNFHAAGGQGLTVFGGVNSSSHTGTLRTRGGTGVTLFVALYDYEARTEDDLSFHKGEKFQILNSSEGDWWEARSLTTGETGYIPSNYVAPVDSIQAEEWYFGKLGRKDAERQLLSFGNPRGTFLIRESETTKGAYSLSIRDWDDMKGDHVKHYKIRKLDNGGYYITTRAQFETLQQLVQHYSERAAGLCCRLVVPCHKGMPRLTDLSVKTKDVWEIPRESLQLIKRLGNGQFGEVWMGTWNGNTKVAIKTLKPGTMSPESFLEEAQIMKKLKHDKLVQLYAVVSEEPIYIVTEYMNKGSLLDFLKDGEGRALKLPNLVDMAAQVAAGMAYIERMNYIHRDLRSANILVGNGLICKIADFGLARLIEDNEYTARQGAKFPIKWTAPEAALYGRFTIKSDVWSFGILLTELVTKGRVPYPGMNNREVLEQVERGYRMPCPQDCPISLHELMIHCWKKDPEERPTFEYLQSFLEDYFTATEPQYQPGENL

Structure (SMILES)	Kd [1]	Kd (Activin receptor type-2B)	Kd (Glycine--tRNA ligase)	Kd (Rab-like protein 3)	Kd [2]	Kd [3]	Kd [4]	Kd [5]	Kd [6]	Kd [7]
COc1cc(Nc2ncc3c(n2)-c2ccc(Cl)cc2C(c2c(F)cccc2OC)=NC3)ccc1C(=O)O [ALISERTIB]	> 30 µM (inactive)	> 30 µM (inactive)	> 30 µM (inactive)	> 30 µM (inactive)	> 30 µM (inactive)					
O=C(Nc1c[nH]nc1-c1nc2cc(CN3CCOCC3)ccc2[nH]1)NC1CC1 [AT-9283]	0.358 µM (active)	> 30 µM (inactive)	> 30 µM (inactive)	> 30 µM (inactive)	> 30 µM (inactive)	> 30 µM (inactive)	> 30 µM (inactive)	> 30 µM (inactive)		
CNC(=O)c1ccccc1Sc1ccc2c(/C=C/c3ccccn3)n[nH]c2c1 [AXITINIB]			> 30 µM (inactive)		> 30 µM (inactive)					
NC(=O)Nc1cc(-c2cccc(F)c2)sc1C(=O)N[C@H]1CCCNC1 [AZD-7762]	> 30 µM (inactive)	0.253 µM (active)	> 30 µM (inactive)	> 30 µM (inactive)		> 30 µM (inactive)	> 30 µM (inactive)	> 30 µM (inactive)	> 30 µM (inactive)	0.284 µM (active)
COc1cc2ncnc(Oc3cccc(NC(=O)Nc4cc(C(C)(C)C(F)(F)F)on4)c3)c2cc1OC [CEP-32496]	0.378 µM	> 30 µM (inactive)	> 30 µM (inactive)	> 30 µM (inactive)	> 30 µM (inactive)	> 30 µM (inactive)	> 30 µM (inactive)	> 30 µM (inactive)	> 30 µM (inactive)	> 30 µM (inactive)
Cc1cc(Nc2ncc(Cl)c(Nc3ccccc3S(=O)(=O)C(C)C)n2)c(OC(C)C)cc1C1CCNCC1 [CERITINIB]	> 30 µM (inactive)	> 30 µM (inactive)	> 30 µM (inactive)	> 30 µM (inactive)	> 30 µM (inactive)	> 30 µM (inactive)	> 30 µM (inactive)	> 30 µM (inactive)	> 30 µM (inactive)	> 30 µM (inactive)
CC(C)(C)c1nc(-c2cccc(NS(=O)(=O)c3c(F)cccc3F)c2F)c(-c2ccnc(N)n2)s1 [DABRAFENIB]	> 30 µM (inactive)	> 30 µM (inactive)	> 30 µM (inactive)	> 30 µM (inactive)	> 30 µM (inactive)		> 30 µM (inactive)	> 30 µM (inactive)		
Cn1cc(C2=C(c3cn(C4CCN(Cc5ccccn5)CC4)c4ccccc34)C(=O)NC2=O)c2ccccc21 [ENZASTAURIN]			> 30 µM (inactive)	> 30 µM (inactive)						
C[C@@H](Oc1cc(-n2cnc3ccc(CN4CCN(C)CC4)cc32)sc1C(N)=O)c1ccccc1C(F)(F)F [GSK-461364]		> 30 µM (inactive)	> 30 µM (inactive)	> 30 µM (inactive)	> 30 µM (inactive)					
